From ChEMBL document CHEMBL4118182, “Straightforward hit identification approach in fragment-based discovery of bromodomain-containing protein 4 (BRD4) inhibitors” (Bioorg Med Chem, 2018)
Active and inactive are the calls of the source. No cut-off for these calls is given here.

Tests used:
[1] = molecular target: T1, Bromodomain-containing protein 4 (Homo sapiens, UniProt O60885); assay: Inhibition of recombinant human N-terminal His6-tagged BRD4 by TR-FRET assay
[2] = molecular target: Carbonic anhydrase 2 (Bos taurus) (UniProt P00921); assay: Binding affinity to bovine carbonic anhydrase-2 assessed as change in melting temperature at 20 uM by differential scanning fluorimetry
[3] = molecular target: T1, Bromodomain-containing protein 4; assay: Binding affinity to recombinant human N-terminal His6-tagged BRD4 bromodomain 1 (44 to 168 residues) expressed in Escherichia coli BL21(DE3) assessed as change in melting temperature at 40 uM by differential scanning fluorimetry
[4] = molecular target: T1, Bromodomain-containing protein 4; assay: Binding affinity to recombinant human N-terminal His6-tagged BRD4 bromodomain 1 (44 to 168 residues) expressed in Escherichia coli BL21(DE3) assessed as change in melting temperature at 20 uM by differential scanning fluorimetry
[5] = Solubility of the compound in DMSO at 200 mM; type: physicochemical; details: 200000 µM
[6] = molecular target: T1, Bromodomain-containing protein 4; assay: Binding affinity to recombinant human N-terminal His6-tagged BRD4 bromodomain 1 (44 to 168 residues) expressed in Escherichia coli BL21(DE3) assessed as increase in melting temperature at 50 to 200 uM by differential scanning fluorimetry
[7] = Solubility of the compound in aqueous buffer at 1 mM; type: physicochemical; details: 1000 µM
[8] = molecular target: T1, Bromodomain-containing protein 4; assay: Binding affinity to recombinant human N-terminal His6-tagged BRD4 bromodomain 1 (44 to 168 residues) expressed in Escherichia coli BL21(DE3) assessed as change in melting temperature at 10 uM by differential scanning fluorimetry
[9] = molecular target: T1, Bromodomain-containing protein 4; assay: Inhibition of recombinant human N-terminal His6-tagged BRD4 at 20 uM by TR-FRET assay relative to control

Carbonic anhydrase 2 (Bos taurus), sequence (P00921 2-260 limits assumed): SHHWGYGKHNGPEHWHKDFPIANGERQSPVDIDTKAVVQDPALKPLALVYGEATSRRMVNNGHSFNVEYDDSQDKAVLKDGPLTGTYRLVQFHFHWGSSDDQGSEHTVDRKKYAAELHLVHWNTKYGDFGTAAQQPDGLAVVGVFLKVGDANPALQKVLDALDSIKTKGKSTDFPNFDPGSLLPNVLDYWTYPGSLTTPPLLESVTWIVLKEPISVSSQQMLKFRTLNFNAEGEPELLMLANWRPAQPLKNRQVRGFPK

Structure (SMILES) | IC50 [1] | deltaTm [2] | deltaTm [3] | ΔTm [4] | solubility [5] | Activity [6] | solubility [7] | deltaTm [8] | inhibition [9]
COc1cccc(C(=O)Nc2ccc3c(c2)n(C)c(=O)n3C)c1 | 15.8 µM | – | – | – | – | – | – | – | –
Cc1ccc(C(=O)Nc2ccc3nc(N4CCCC4)sc3c2)cc1[N+](=O)[O-] | > 100 µM | > 0.5 K | > 1 K | 2.01 °C | Soluble | Active | Soluble | > 0.5 K | 72.4%
Cc1cc2cc(N)ccc2[nH]1 | – | > 0.5 K | > 1 K | 1.4 °C | Soluble | Active | Soluble | > 0.5 K | Active
CC1CCCC(C)N1C(=O)CSc1nc2sc3c(c2c(=O)n1C)CCCC3 (centres undefined) | > 100 µM | > 0.5 K | > 1 K | -1.85 °C | Soluble | inactive | Soluble | > 0.5 K | 68.2%
O=C1C(=O)N(CCCOc2ccccc2)c2ccc(Cl)cc21 | > 100 µM | > 0.5 K | > 1 K | -2.63 °C | Soluble | inactive | Soluble | > 0.5 K | 65.9%
COc1ccc(OC)c(CCC(=O)Nc2ccc3c(c2)n(C)c(=O)n3C)c1 | 60 µM | > 0.5 K | > 1 K | 0.82 °C | Soluble | Active | Soluble | > 0.5 K | 67%
Nc1ccc2nc(N3CCCC3)sc2c1 | – | > 0.5 K | > 1 K | 1.7 °C | Soluble | Active | Soluble | > 0.5 K | Active
Cc1nc(-c2cccc(N)c2)cs1 | – | > 0.5 K | > 1 K | – | Soluble | Active | Soluble | > 0.5 K | inactive
Cn1c(=O)n(C)c2cc(NC(=O)c3cc4c(s3)CCC4)ccc21 | 1.9 µM | > 0.5 K | > 1 K | 1.88 °C | Soluble | Active | Soluble | > 0.5 K | 76.5%
COCCOc1ccccc1CNc1ccc2c(c1)n(C)c(=O)n2C | 21 µM | > 0.5 K | > 1 K | 1.39 °C | Soluble | Active | Soluble | > 0.5 K | 63.4%
Cn1cc(NC(=O)c2occc2COc2ccccc2)ccc1=O | 3 µM | > 0.5 K | > 1 K | 1.2 °C | Soluble | Active | Soluble | > 0.5 K | 64.4%
Cc1cc2cc(NC(=O)c3sc4nc(C(F)(F)F)ccc4c3C)ccc2[nH]1 | 24 µM | > 0.5 K | > 1 K | 1.39 °C | Soluble | Active | Soluble | > 0.5 K | 72.7%
Cc1nc2ccc(C(=O)O)cc2o1 | – | > 0.5 K | > 1 K | -2.1 °C | Soluble | Active | Soluble | > 0.5 K | –
Cc1nc(-c2cccc(NC(=O)c3ccc4[nH]c(C)c(C)c4c3)c2)cs1 | 7.4 µM | > 0.5 K | > 1 K | 1.2 °C | Soluble | Active | Soluble | > 0.5 K | 80.5%
Cc1ccc(S(=O)(=O)Nc2ccc3c(c2)n(C)c(=O)n3C)c(C)c1 | 2.5 µM | – | – | – | – | – | – | – | –
Cc1cc2cc(NC(=O)c3ccc(Oc4ccc(C(F)(F)F)cn4)cc3)ccc2[nH]1 | 27 µM | > 0.5 K | > 1 K | 1.32 °C | Soluble | Active | Soluble | > 0.5 K | 63.3%
CC1(C)C(=O)Nc2cc(C(=O)O)ccc21 | – | > 0.5 K | > 1 K | 2.1 °C | Soluble | Active | Soluble | > 0.5 K | –
CC1Oc2ccc(N)cc2NC1=O (centres undefined) | – | > 0.5 K | > 1 K | 2.8 °C | Soluble | Active | Soluble | > 0.5 K | –
Cn1c(=O)n(C)c2cc(N)ccc21 | – | > 0.5 K | > 1 K | 2.8 °C | Soluble | Active | Soluble | > 0.5 K | Active
